Experimental data from patent US12648924B2, “Prevention and treatment of effects of aging and age-associated disorders with ketone supplementation” (priority 2020, dated 2026).

Experiment: KDE in LPS-induced sepsis, inflammation-induced atrophy, ad libitum fed (Experiment 5b)
Format: in vivo, VM/Dk mice
Conditions: single 4 mL/kg KDE gavage after 10 mg/kg LPS
Protocol: VM-M3 Cell and Lipopolysaccharide Implantation: For VM-M3 implantation in the model characterization experiments (FIG. 1-5; FIG. 8-12), ˜1×10^6 VM-M3 cells (T. Seyfried, Boston College) in 300 μL sterile PBS (CA-M and CA-F) or 300 μL sterile PBS-only (SH-M and SH-F) were injected subcutaneously into the left abdominal flank resulting in primary tumor formation at the injection site, and subsequently systemically metastasizes to most major organs, namely the liver, kidneys, spleen, lungs, and brain. […] This method of implantation further minimized variability in markers of tumor progression, and therefore provides a useful optional method technique in the VM-M3 model for efficient analysis of potential therapeutic agents. To determine KDE-induced effects on CACS, 1×10^6 VM-M3 cells in 300 μL sterile PBS (KDE+VM-M3 and VM-M3) or 300 μL sterile PBS-only (Sham) were administered intraperitoneally (FIG. 6; FIG. 13). For LPS administration in the septic atrophy model, LPS (Escherichia coli 055:B5; L2880; Sigma-Aldrich, St. Louis, MO) was diluted in sterile PBS and administered intraperitoneally at 10 mg/kg as pilot work indicated a maximal, yet non-fatal, ˜15% bodyweight reduction at 10 mg/kg dose.
Body Composition: Bodyweight was assessed daily at the same time (7:00-9:00 AM). At EOL, bodyweight and weights of ascites fluid, primary tumor, calf (combined gastrocnemius & soleus), anterior thigh (quadriceps), intraperitoneal fat pads, liver and spleen tissue were measured (Table 1; Experiment 1a&b). A follow-up time course experiment was conducted at weeks 1, 2, and 3 to assess weekly changes in bodyweight and aforementioned tissues for both cancer and sham-matched control animals (Experiment 2). For follow up evaluation of KDE in CACS, bodyweight was tracked daily with tissue weight determined at 21-days, prior to EOL (Experiment 4c). All tissue weights were gathered at harvest and normalized to baseline bodyweight (not influenced by cachexia progression) to allow for appropriate comparison between animals. For evaluation of KDE in LPS, bodyweight was tracked daily for evaluation pre- and post-LPS administration (Experiment 5b&c).
Food Intake and Ketone Diester Administration: Standard diet dry food (2018 Teklad Global 18% Protein Rodent Diet, Harlan) was mixed with deionized water (1 g dry food/mL deionized water) into a consistent paste and placed on a 100×15 mm dish. Food intake was tracked daily at the same time (7:00-9:00) and replaced every other day to ensure fresh food. […] As pilot work indicated potential water evaporation in food paste in ventilated cages, dehydration standard curve was calculated across various volumes of plated food (5, 10, 25.0, 50.0, 100 g/food) with and without KDE over a two-day period. […]

Compound: CC(=O)CC(=O)OCCC(C)OC(=O)CC(C)=O (stereo not shown) [KDE, R/S 1,3-butanediol acetoacetate diester]
- anorexic symptoms (percentage caloric restriction) (1 day post LPS): significantly reduced
- attenuation of bodyweight loss (first 24 hours, vs LPS with water): 47%
- chronic LPS-induced bodyweight loss (followed 13 days): significantly attenuated
- time to recovery (return to baseline bodyweight) (LPS alone did not recover within 13 days): ≤ 10 days
